The structures appear in SMILES notation. Numbered stars: 1 amine (or outer) side, 2 acyl side, 3 side chain; on linkers, the order of the positions; unused ones are H or OH. Bridge positions count the residues as written; N and C are the ends. Side chains are listed from the residue outwards. Peptide text beside a SMILES is read from it. * marks the point of attachment. C20 diacid = O=C(O)CCCCCCCCCCCCCCCCCCC(=O)*; γGlu = O=C(O)[C@H](CCC(=O)[*:2])N[*:1]

The record followed here is article PMC11284788, “NN1213 – A Potent, Long-Acting, and Selective Analog of Human Amylin” (Journal of Medicinal Chemistry, 2024).

The nature of data set [1]: HMWP content by size-exclusion chromatography. The format is physicochemical. The conditions noted are these: covalent dimers and polymers prior to fibril formation testing, SEC, % of total absorbance area at 215 nm. Summed up:
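HMWP percentage is the covalent dimer/polymer peak area relative to total absorbance area, with extinction coefficients taken as equal to the main peak. Isocratic size-exclusion elution used 50% (v/v) 2-propanol containing 0.5 M NaCl and phosphate buffer; measured on analogs prior to fibril assays.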
(In general: Size exclusion chromatography separates by hydrodynamic size, large species first.)

Data set [2] can be described thus: ThT assay: fibril formation propensity and peptide recovery. The format is physicochemical. The conditions noted are these: for ThT, pH 7.5 lag-time / ThT, pH 4.0 lag-time: 250 μM peptide, 37 °C, 960 rpm, 45 h, lowest of four replicas, average of experiments; for ThT, pH 7.5 lag-time: 10 mM HEPES pH 7.5, 1 μM ThT; for recovery: residual dissolved peptide after 45 h of shaking, centrifugation and 0.22 μm filtration, HPLC, relative to amount before stress; for ThT, pH 4.0 lag-time: 10 mM glycylglycine pH 4.0, 1 μM ThT. Summed up:
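Fibrillation lag time is read visually from ThT fluorescence-time curves (444/485 nm, 20-min reads, 45 h, 37 °C, 960 rpm shaking) of 250 μM peptide with 1 μM ThT at pH 4.0 or 7.5. The most conservative of four replicates is used. Peptide recovery is post-stress soluble peptide (HPLC, 215/276 nm) as fraction of initial.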

With `CC[C@H](C)[C@H](NC(=O)[C@@H]1CCCN1C(=O)CNC(=O)[C@H](Cc1ccccc1)NC(=O)[C@H](CC(N)=O)NC(=O)[C@@H]1CCCN1C(=O)[C@H](CO)NC(=O)[C@H](CO)NC(=O)[C@H](Cc1c[nH]cn1)NC(=O)[C@H](CCCNC(=N)N)NC(=O)[C@H](CC(C)C)NC(=O)[C@H](Cc1ccccc1)NC(=O)[C@H](CC(=O)O)NC(=O)[C@H](C)NC(=O)[C@H](CC(C)C)NC(=O)[C@H](CCCNC(=N)N)NC(=O)[C@H](CCC(N)=O)NC(=O)[C@@H](NC(=O)[C@H](C)NC(=O)[C@@H]1CSSC[C@H](NC(=O)[C@@H](N)CCCCNC(=O)CC[C@H](NC(=O)CC[C@H](NC(=O)CCCCCCCCCCCCCCCCCCC(=O)O)C(=O)O)C(=O)O)C(=O)N[C@@H](CC(N)=O)C(=O)N[C@@H]([C@@H](C)O)C(=O)N[C@@H](C)C(=O)N[C@@H]([C@@H](C)O)C(=O)N1)[C@@H](C)O)C(=O)N[C@@H](CC(C)C)C(=O)N[C@@H](CO)C(=O)N[C@@H](CO)C(=O)N[C@H](C(=O)N[C@@H](CC(N)=O)C(=O)N[C@H](C(=O)NCC(=O)N[C@@H](CO)C(=O)N[C@@H](CC(=O)O)C(=O)N[C@H](C(=O)N[C@@H](Cc1ccc(O)cc1)C(N)=O)[C@@H](C)O)C(C)C)[C@@H](C)O` [Peptide 3] (H-K([γGlu-γGlu-C20 diacid])CNTATCATQRLADFLRHSSPNFGPILSSTNVGSDTY-NH2; disulfide 2-7), in data set [1] (analogs 1–9 (pH 7.5 series)), the HMWP is recorded as 24%. The “ThT, pH 7.5 lag-time” value in data set [2] was found to be 0.3 h. The same compound displayed a recovery in data set [2] (pH 7.5) of 19%.

In the case of `CC(C)C[C@H](NC(=O)[C@H](CCCNC(=N)N)NC(=O)[C@H](CCC(N)=O)NC(=O)[C@@H](NC(=O)[C@H](C)NC(=O)[C@@H]1CSSC[C@H](NC(=O)[C@@H](N)CCCCNC(=O)CC[C@H](NC(=O)CC[C@H](NC(=O)CCCCCCCCCCCCCCCCCCC(=O)O)C(=O)O)C(=O)O)C(=O)N[C@@H](CC(N)=O)C(=O)N[C@@H]([C@@H](C)O)C(=O)N[C@@H](C)C(=O)N[C@@H]([C@@H](C)O)C(=O)N1)[C@@H](C)O)C(=O)N[C@@H](C)C(=O)N[C@@H](CC(=O)O)C(=O)N[C@@H](Cc1ccccc1)C(=O)N[C@@H](CC(C)C)C(=O)N[C@@H](CCCNC(=N)N)C(=O)N[C@@H](Cc1c[nH]cn1)C(=O)N[C@@H](CO)C(=O)N[C@@H](CO)C(=O)N1CCC[C@H]1C(=O)N[C@@H](CC(N)=O)C(=O)N[C@@H](Cc1ccccc1)C(=O)NCC(=O)N[C@@H](C)C(=O)N1CCC[C@H]1C(=O)N[C@@H](CC(C)C)C(=O)N[C@@H](CO)C(=O)N[C@@H](CO)C(=O)N[C@H](C(=O)N[C@@H](CC(N)=O)C(=O)N[C@H](C(=O)NCC(=O)N[C@@H](CO)C(=O)N[C@@H](CC(=O)O)C(=O)N[C@H](C(=O)N[C@@H](Cc1ccc(O)cc1)C(N)=O)[C@@H](C)O)C(C)C)[C@@H](C)O` [Peptide 5] (H-K([γGlu-γGlu-C20 diacid])CNTATCATQRLADFLRHSSPNFGAPLSSTNVGSDTY-NH2; disulfide 2-7), in data set [1] (analogs 1–9 (pH 7.5 series)), the HMWP turned out to be 7%. For the same compound, the “ThT, pH 7.5 lag-time” value in data set [2] is on record as 35 h. The recovery in data set [2] (pH 7.5) was 100%.

With `CC[C@H](C)[C@H](NC(=O)[C@H](C)NC(=O)CNC(=O)[C@H](Cc1ccccc1)NC(=O)[C@H](CC(N)=O)NC(=O)[C@@H]1CCCN1C(=O)[C@H](CO)NC(=O)[C@H](CO)NC(=O)[C@H](Cc1c[nH]cn1)NC(=O)[C@H](CCCNC(=N)N)NC(=O)[C@H](CC(C)C)NC(=O)[C@H](Cc1ccccc1)NC(=O)[C@H](CC(=O)O)NC(=O)[C@H](C)NC(=O)[C@H](CC(C)C)NC(=O)[C@H](CCCNC(=N)N)NC(=O)[C@H](CCC(N)=O)NC(=O)[C@@H](NC(=O)[C@H](C)NC(=O)[C@@H]1CSSC[C@H](NC(=O)[C@@H](N)CCCCNC(=O)CC[C@H](NC(=O)CC[C@H](NC(=O)CCCCCCCCCCCCCCCCCCC(=O)O)C(=O)O)C(=O)O)C(=O)N[C@@H](CC(N)=O)C(=O)N[C@@H]([C@@H](C)O)C(=O)N[C@@H](C)C(=O)N[C@@H]([C@@H](C)O)C(=O)N1)[C@@H](C)O)C(=O)N1CCC[C@H]1C(=O)N[C@@H](CO)C(=O)N[C@@H](CO)C(=O)N[C@H](C(=O)N[C@@H](CC(N)=O)C(=O)N[C@H](C(=O)NCC(=O)N[C@@H](CO)C(=O)N[C@@H](CC(=O)O)C(=O)N[C@H](C(=O)N[C@@H](Cc1ccc(O)cc1)C(N)=O)[C@@H](C)O)C(C)C)[C@@H](C)O` [Peptide 6] (H-K([γGlu-γGlu-C20 diacid])CNTATCATQRLADFLRHSSPNFGAIPSSTNVGSDTY-NH2; disulfide 2-7), the HMWP in data set [1] (analogs 1–9 (pH 7.5 series)) worked out at 2.5%. Moreover, in data set [2], the “ThT, pH 7.5 lag-time” value was greater than 45 h. In addition, the recovery in data set [2] (pH 7.5) is 100%.

In turn, `CC[C@H](C)[C@H](NC(=O)[C@H](C)NC(=O)CNC(=O)[C@H](Cc1ccccc1)NC(=O)[C@H](CC(N)=O)NC(=O)[C@@H]1CCCN1C(=O)[C@H](CO)NC(=O)[C@H](CO)NC(=O)[C@H](Cc1c[nH]cn1)NC(=O)[C@H](CCCNC(=N)N)NC(=O)[C@H](CC(C)C)NC(=O)[C@H](Cc1ccccc1)NC(=O)[C@H](CC(N)=O)NC(=O)[C@H](C)NC(=O)[C@H](CC(C)C)NC(=O)[C@H](CCCNC(=N)N)NC(=O)[C@H](CCC(N)=O)NC(=O)[C@@H](NC(=O)[C@H](C)NC(=O)[C@@H]1CSSC[C@H](NC(=O)[C@H](CCCCN)NC(=O)CC[C@H](NC(=O)CCCCCCCCCCCCCCCCCCC(=O)O)C(=O)O)C(=O)N[C@@H](CC(N)=O)C(=O)N[C@@H]([C@@H](C)O)C(=O)N[C@@H](C)C(=O)N[C@@H]([C@@H](C)O)C(=O)N1)[C@@H](C)O)C(=O)N1CCC[C@H]1C(=O)N[C@@H](CO)C(=O)N[C@@H](CO)C(=O)N[C@H](C(=O)N[C@@H](CC(N)=O)C(=O)N[C@H](C(=O)NCC(=O)N[C@@H](CCCNC(=N)N)C(=O)N[C@@H](CC(N)=O)C(=O)N[C@H](C(=O)N[C@@H](Cc1ccc(O)cc1)C(N)=O)[C@@H](C)O)C(C)C)[C@@H](C)O` [Peptide 16] showed an HMWP in data set [1] (analogs 10–21 (pH 4.0 series)) of 2.2%. For the same compound, the “ThT, pH 4.0 lag-time” value in data set [2] is reported as greater than 45 h. The same compound gave a recovery in data set [2] (pH 4.0) of 100%.

In turn, `CC[C@H](C)[C@H](NC(=O)[C@H](C)NC(=O)CNC(=O)[C@H](Cc1ccccc1)NC(=O)[C@H](CC(N)=O)NC(=O)[C@@H]1CCCN1C(=O)[C@H](CO)NC(=O)[C@H](CO)NC(=O)[C@H](Cc1c[nH]cn1)NC(=O)[C@H](CCCNC(=N)N)NC(=O)[C@H](CC(C)C)NC(=O)[C@H](Cc1ccccc1)NC(=O)[C@H](CC(N)=O)NC(=O)[C@H](C)NC(=O)[C@H](CC(C)C)NC(=O)[C@H](CCCNC(=N)N)NC(=O)[C@H](CCC(N)=O)NC(=O)[C@@H](NC(=O)[C@H](C)NC(=O)[C@@H]1CSSC[C@H](NC(=O)[C@@H](N)CCCCNC(=O)CC[C@H](NC(=O)CCCCCCCCCCCCCCCCCCC(=O)O)C(=O)O)C(=O)N[C@@H](CC(N)=O)C(=O)N[C@@H]([C@@H](C)O)C(=O)N[C@@H](C)C(=O)N[C@@H]([C@@H](C)O)C(=O)N1)[C@@H](C)O)C(=O)N1CCC[C@H]1C(=O)N[C@@H](CO)C(=O)N[C@@H](CO)C(=O)N[C@H](C(=O)N[C@@H](CC(N)=O)C(=O)N[C@H](C(=O)NCC(=O)N[C@@H](CO)C(=O)N[C@@H](CCCCN)C(=O)N[C@H](C(=O)N[C@@H](Cc1ccc(O)cc1)C(N)=O)[C@@H](C)O)C(C)C)[C@@H](C)O` [Peptide 14] yielded an HMWP in data set [1] (analogs 10–21 (pH 4.0 series)) of 3.0%. Also, the “ThT, pH 4.0 lag-time” value in data set [2] is reported as greater than 45 h. This compound gave a recovery in data set [2] (pH 4.0) of 100%.

`CC[C@H](C)[C@H](NC(=O)[C@H](C)NC(=O)CNC(=O)[C@H](Cc1ccccc1)NC(=O)[C@H](CC(N)=O)NC(=O)[C@@H]1CCCN1C(=O)[C@H](CO)NC(=O)[C@H](CO)NC(=O)[C@H](Cc1c[nH]cn1)NC(=O)[C@H](CCCNC(=N)N)NC(=O)[C@H](CC(C)C)NC(=O)[C@H](Cc1ccccc1)NC(=O)[C@H](CC(N)=O)NC(=O)[C@H](C)NC(=O)[C@H](CC(C)C)NC(=O)[C@H](CCCNC(=N)N)NC(=O)[C@H](CCC(N)=O)NC(=O)[C@@H](NC(=O)[C@H](C)NC(=O)[C@@H]1CSSC[C@H](NC(=O)[C@H](CCCCN)NC(=O)CC[C@H](NC(=O)CCCCCCCCCCCCCCCCCCC(=O)O)C(=O)O)C(=O)N[C@@H](CC(N)=O)C(=O)N[C@@H]([C@@H](C)O)C(=O)N[C@@H](C)C(=O)N[C@@H]([C@@H](C)O)C(=O)N1)[C@@H](C)O)C(=O)N1CCC[C@H]1C(=O)N[C@@H](CO)C(=O)N[C@@H](CO)C(=O)N[C@H](C(=O)N1CCC[C@H]1C(=O)N[C@H](C(=O)NCC(=O)N[C@@H](CO)C(=O)N[C@@H](CCC(=O)O)C(=O)N[C@H](C(=O)N[C@@H](Cc1ccc(O)cc1)C(N)=O)[C@@H](C)O)C(C)C)[C@@H](C)O` [Peptide 11] ({C20 diacid-γGlu}-KCNTATCATQRLANFLRHSSPNFGAIPSSTPVGSETY-NH2; disulfide 2-7) gave an HMWP in data set [1] (analogs 10–21 (pH 4.0 series)) of 2.6%. Moreover, in data set [2], the “ThT, pH 4.0 lag-time” value was found to be 40 h. This compound also returned a recovery in data set [2] (pH 4.0) of 74%.
